Our source for the IC50 and pKa values is ChEMBL document CHEMBL1130562, “Potent and selective inhibitors of the Abl-kinase: phenylamino-pyrimidine (PAP) derivatives” (Bioorg Med Chem Lett, 1997).

A value given as a limit tells only on which side of the number the result lay.

Data set [1] deals with Tyrosine-protein kinase ABL1 (Homo sapiens, UniProt P00519).
Description: Inhibition of v-Abl tyrosine kinase.
The target in data set [2] is cAMP-dependent protein kinase (PKA) (Homo sapiens, UniProt P22694+P17612+P22612). Description: Inhibition of protein kinase A. The class given is protein assay, unidentified.
For data set [3], the target named is Protein kinase C delta type (Homo sapiens, UniProt Q05655). Description: Inhibition of protein kinase C delta.
The target of data set [4] is Protein kinase C alpha type (Homo sapiens, UniProt P17252). The data set can be described thus: Inhibition of protein kinase C alpha.
Data set [5] concerns the target Platelet-derived growth factor receptor (Homo sapiens, UniProt P09619+P16234). Description: Inhibition of the platelet-derived growth factor receptor.
Data set [6] deals with Epidermal growth factor receptor (Homo sapiens, UniProt P00533).
Description: Inhibition of the epidermal growth factor receptor.
Data set [7] concerns the target Proto-oncogene tyrosine-protein kinase Src (Homo sapiens, UniProt P12931).
Description: Inhibition of c-Src-tyrosine kinase.
Data set [8] is described as follows: Dissociation constant pKa was determined. Type of data set: physicochemical.

Tyrosine-protein kinase ABL1, sequence (P00519 whole entry, looked up): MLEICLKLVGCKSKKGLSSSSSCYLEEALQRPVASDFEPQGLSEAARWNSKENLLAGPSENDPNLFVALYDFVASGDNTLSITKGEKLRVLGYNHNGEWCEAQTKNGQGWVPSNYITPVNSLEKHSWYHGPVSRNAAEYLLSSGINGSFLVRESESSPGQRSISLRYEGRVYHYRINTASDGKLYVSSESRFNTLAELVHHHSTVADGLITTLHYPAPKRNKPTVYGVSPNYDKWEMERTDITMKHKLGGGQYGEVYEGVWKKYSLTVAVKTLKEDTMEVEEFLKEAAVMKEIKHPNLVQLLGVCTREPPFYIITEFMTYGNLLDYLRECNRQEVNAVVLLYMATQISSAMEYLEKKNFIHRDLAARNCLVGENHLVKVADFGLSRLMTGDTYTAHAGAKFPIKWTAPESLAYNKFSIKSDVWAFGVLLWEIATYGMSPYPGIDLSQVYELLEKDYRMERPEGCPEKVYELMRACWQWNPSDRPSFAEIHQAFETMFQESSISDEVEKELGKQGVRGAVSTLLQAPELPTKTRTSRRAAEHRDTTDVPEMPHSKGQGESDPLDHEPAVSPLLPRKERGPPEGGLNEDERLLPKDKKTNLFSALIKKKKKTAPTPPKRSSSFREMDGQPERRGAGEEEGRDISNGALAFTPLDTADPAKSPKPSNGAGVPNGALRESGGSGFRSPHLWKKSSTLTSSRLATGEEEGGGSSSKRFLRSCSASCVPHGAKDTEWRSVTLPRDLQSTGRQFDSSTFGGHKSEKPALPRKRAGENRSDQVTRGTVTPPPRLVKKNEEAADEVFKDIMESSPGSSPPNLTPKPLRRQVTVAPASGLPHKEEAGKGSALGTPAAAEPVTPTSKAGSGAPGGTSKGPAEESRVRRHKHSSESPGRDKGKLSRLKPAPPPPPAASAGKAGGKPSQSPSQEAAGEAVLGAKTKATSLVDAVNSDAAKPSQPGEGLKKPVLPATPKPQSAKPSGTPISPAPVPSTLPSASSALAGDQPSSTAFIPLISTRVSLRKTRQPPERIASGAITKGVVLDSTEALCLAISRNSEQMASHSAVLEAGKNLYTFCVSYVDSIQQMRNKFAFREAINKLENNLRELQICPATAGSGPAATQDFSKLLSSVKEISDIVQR
Protein kinase C delta type, sequence (Q05655 whole entry): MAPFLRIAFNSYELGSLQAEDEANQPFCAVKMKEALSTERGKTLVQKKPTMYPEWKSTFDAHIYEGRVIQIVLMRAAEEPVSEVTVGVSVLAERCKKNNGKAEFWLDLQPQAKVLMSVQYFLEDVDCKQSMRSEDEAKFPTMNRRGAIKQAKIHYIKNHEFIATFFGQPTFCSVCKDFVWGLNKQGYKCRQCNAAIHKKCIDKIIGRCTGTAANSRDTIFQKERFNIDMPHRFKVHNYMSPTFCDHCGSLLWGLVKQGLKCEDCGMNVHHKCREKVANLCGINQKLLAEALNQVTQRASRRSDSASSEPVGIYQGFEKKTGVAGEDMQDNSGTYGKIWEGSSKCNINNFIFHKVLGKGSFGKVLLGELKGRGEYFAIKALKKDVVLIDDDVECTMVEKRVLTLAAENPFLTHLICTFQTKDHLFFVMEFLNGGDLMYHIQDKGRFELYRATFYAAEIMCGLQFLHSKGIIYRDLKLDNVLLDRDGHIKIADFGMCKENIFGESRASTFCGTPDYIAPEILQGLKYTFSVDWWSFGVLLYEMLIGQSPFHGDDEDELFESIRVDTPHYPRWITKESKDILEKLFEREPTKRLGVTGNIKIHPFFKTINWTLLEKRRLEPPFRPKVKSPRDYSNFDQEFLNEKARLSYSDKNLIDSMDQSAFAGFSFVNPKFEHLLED
Epidermal growth factor receptor, sequence (P00533 whole entry): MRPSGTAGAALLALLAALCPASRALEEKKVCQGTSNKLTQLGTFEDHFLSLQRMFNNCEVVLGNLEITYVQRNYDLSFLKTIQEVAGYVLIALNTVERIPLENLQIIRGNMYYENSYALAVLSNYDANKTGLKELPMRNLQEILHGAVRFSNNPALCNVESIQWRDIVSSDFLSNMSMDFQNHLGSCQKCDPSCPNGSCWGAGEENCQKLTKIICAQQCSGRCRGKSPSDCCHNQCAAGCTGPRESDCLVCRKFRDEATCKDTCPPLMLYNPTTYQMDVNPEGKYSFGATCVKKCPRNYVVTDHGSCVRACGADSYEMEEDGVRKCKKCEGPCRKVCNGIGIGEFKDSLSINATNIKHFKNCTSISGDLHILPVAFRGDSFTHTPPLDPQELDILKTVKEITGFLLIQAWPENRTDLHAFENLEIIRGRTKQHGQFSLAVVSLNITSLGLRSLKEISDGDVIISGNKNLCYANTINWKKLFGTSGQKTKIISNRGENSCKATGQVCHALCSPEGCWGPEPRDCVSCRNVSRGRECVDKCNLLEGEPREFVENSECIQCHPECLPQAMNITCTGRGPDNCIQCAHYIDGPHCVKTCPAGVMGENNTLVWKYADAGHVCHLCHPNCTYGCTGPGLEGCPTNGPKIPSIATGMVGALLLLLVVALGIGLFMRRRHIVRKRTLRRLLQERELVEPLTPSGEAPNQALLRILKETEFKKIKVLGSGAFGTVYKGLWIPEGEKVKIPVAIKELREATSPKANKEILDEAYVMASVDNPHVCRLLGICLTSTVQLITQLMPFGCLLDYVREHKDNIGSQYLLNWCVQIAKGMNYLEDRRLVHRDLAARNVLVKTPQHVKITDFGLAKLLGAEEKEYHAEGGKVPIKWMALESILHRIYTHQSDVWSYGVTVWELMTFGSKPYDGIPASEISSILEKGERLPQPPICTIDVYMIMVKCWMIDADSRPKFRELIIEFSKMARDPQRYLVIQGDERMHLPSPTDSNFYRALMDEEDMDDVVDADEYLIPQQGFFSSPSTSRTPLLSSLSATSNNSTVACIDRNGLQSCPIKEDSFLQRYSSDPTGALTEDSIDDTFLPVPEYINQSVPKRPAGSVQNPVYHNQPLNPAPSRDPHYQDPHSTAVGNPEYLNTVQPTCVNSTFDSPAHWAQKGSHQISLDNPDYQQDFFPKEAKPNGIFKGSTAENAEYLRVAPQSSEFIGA
Proto-oncogene tyrosine-protein kinase Src, sequence (P12931 2-536 limits assumed): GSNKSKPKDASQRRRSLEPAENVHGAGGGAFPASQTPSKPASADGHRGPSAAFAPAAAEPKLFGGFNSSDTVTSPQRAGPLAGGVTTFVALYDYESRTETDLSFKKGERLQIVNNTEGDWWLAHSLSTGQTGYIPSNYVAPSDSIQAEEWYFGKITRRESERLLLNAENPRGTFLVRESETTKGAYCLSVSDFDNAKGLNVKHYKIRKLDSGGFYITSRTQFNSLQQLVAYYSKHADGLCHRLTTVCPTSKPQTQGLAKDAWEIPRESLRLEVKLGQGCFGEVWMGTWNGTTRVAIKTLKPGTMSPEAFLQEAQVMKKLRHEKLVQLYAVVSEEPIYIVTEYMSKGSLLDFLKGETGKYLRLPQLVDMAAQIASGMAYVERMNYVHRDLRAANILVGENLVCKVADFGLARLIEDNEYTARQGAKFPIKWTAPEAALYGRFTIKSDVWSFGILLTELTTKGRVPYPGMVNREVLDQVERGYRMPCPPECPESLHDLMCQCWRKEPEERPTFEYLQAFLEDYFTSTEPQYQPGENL

In general, IC50 refers to the concentration that inhibits the measured activity by half. As for `Cc1ccc(NC(=O)c2ccc3ccccc3c2)cc1Nc1nccc(-c2cccnc2)n1`, the IC50 is 0.2 µM in data set [1] and above 100 µM in data set [2].

The molecule `Cc1ccc(C(=O)Nc2ccc(C)c(Nc3nccc(-c4cccnc4)n3)c2)cc1` returned an IC50 in data set [2] above 100 µM.

Take `Cc1ccc(NC(=O)c2ccccc2)cc1Nc1nccc(-c2cccnc2)n1`: the IC50 was 0.4 µM in data set [1] and above 500 µM in data set [2].

Regarding `Cc1ccc(NC(=O)c2ccc(Cl)cc2)cc1Nc1nccc(-c2cccnc2)n1`, the IC50 is 0.8 µM in data set [1], above 100 µM in data set [2] and above 100 µM in data set [3].

As to `O=C(Nc1cccc(Nc2nccc(-c3cccnc3)n2)c1)c1ccccc1`, the IC50 in data set [1] was 0.4 µM; in data set [2], above 500 µM.

In the case of `Cc1ccc(N)cc1Nc1nccc(-c2cccnc2)n1`, the IC50 in data set [1] is 1.5 µM; in data set [2] it was above 500 µM; in data set [4], 240 µM.

`c1cncc(-c2ccnc(Nc3cccc(-n4ccnc4)c3)n2)c1`: the IC50 in data set [5] is 18 µM; in data set [1], 3.3 µM; in data set [6], above 100 µM; in data set [2] it was above 500 µM; in data set [7] it was 1.6 µM; in data set [3], 21 µM. 1 µM corresponded to half-maximal inhibition in data set [4] (IC50).

As for `O=C(Nc1cccc(Nc2nccc(-c3cccnc3)n2)c1)c1ccccn1`, the IC50 was above 100 µM in data set [5], 3.8 µM in data set [1], above 500 µM in data set [2] and 90 µM in data set [7].

As to `NCCCn1ccc2c(-c3ccnc(Nc4cccc(OC(F)(F)C(F)F)c4)n3)cccc21`, the IC50 in data set [5] was 5 µM; in data set [1], 0.35 µM; in data set [6] it was 0.53 µM; in data set [2] it was 2 µM; in data set [7], 0.5 µM; in data set [3], 4.4 µM. Also, it took 0.18 µM to reach half-maximal inhibition in data set [4] (IC50).

Regarding `COc1ccccc1C(=O)Nc1cccc(Nc2nccc(-c3cccnc3)n2)c1`, the IC50 in data set [5] is 1 µM; in data set [1] it was 1.9 µM; in data set [6], 100 µM; in data set [2], above 500 µM; in data set [7] it was above 100 µM; in data set [3], above 500 µM. This molecule returned an IC50 in data set [4] of 0.32 µM.

Turning to `Clc1cccc(Nc2nccc(-c3cccnc3)n2)c1`, the IC50 is above 10 µM in data set [5]; 1.5 µM in data set [1]; above 100 µM in data set [6]; above 500 µM in data set [2]; above 100 µM in data set [7]; 23 µM in data set [3]. In data set [4], this molecule came in with an IC50 of 1.6 µM.

`COc1ccccc1C(=O)Nc1ccc(C)c(Nc2nccc(-c3cccnc3)n2)c1`: the half-inhibitory concentration (IC50) in data set [1] is 0.8 µM; in data set [2], above 500 µM; in data set [3], above 100 µM; in data set [4], 80 µM.

The term pKa denotes the negative logarithm of the acid dissociation constant. Read a high pKa as a group that holds its proton tightly. As to `O=C(Nc1cccc(Nc2nccc(-c3cccnc3)n2)c1)c1cccnc1`, the IC50 in data set [5] is 50 µM; in data set [1], 0.15 µM; in data set [6], above 100 µM; in data set [2] it was above 500 µM; in data set [7] it was 9 µM; in data set [3], 17 µM. Further, half-maximal inhibition in data set [4] (IC50) required 1.7 µM. This molecule gave a pKa in data set [8] of 2.56.

In the case of `O=C(Nc1cccc(Nc2nccc(-c3cccnc3)n2)c1)c1ccc(F)cc1`, the IC50 in data set [5] is 3 µM; in data set [1], 0.2 µM; in data set [6], above 50 µM; in data set [2], above 500 µM; in data set [7] it was above 100 µM.

Turning to `CC(=O)Nc1ccc(C)c(Nc2nccc(-c3cccnc3)n2)c1`, the figures for the IC50 in data set [1], in data set [2] and in data set [4] were 5.8 µM, above 500 µM and 500 µM, respectively.

Regarding `FC(F)C(F)(F)Oc1cccc(Nc2nccc(-c3c[nH]c4ccccc34)n2)c1`, the IC50 in data set [5] was above 10 µM; in data set [1], 0.37 µM; in data set [6], 1.8 µM; in data set [2], 73 µM; in data set [7] it was 2.2 µM; in data set [3] it was 1.4 µM. This molecule also returned an IC50 in data set [4] of 0.29 µM.

On to `O=C(Nc1cccc(Nc2nccc(-c3cccnc3)n2)c1)c1ccncc1`, for which the IC50 in data set [5] is above 100 µM; in data set [1] it was 0.5 µM; in data set [6], above 100 µM; in data set [2], above 500 µM; in data set [7] it was 78 µM; in data set [3], 24 µM. In data set [4], this molecule displayed an IC50 of 1.3 µM.

As to `FC(F)C(F)(F)Oc1cccc(Nc2nccc(-c3ccncc3)n2)c1`, the IC50 is above 10 µM in data set [5]; above 100 µM in data set [1]; above 100 µM in data set [6]; above 500 µM in data set [2]; above 100 µM in data set [7]; above 100 µM in data set [3]. Also, the IC50 in data set [4] came to 0.3 µM.

Turning to `O=[N+]([O-])c1cccc(Nc2nccc(-c3ccncc3)n2)c1`, the IC50 is above 100 µM in data set [5]; 61 µM in data set [1]; above 100 µM in data set [6]; above 500 µM in data set [2]; above 100 µM in data set [7]; above 500 µM in data set [3]. For the same molecule, half-maximal inhibition in data set [4] (IC50) was put at 2.6 µM.

Consider `O=C(O)c1ccccc1C(=O)Nc1cccc(Nc2nccc(-c3cccnc3)n2)c1`, for which the IC50 in data set [5] is above 100 µM; in data set [1] it was 2 µM; in data set [2], above 500 µM; in data set [7], 44 µM.

For `O=[N+]([O-])c1cccc(Nc2nccc(-c3cccnc3)n2)c1`, the IC50 in data set [5] was above 100 µM; in data set [1], 34 µM; in data set [6] it was 100 µM; in data set [2], above 500 µM; in data set [7], 93 µM; in data set [3], above 500 µM. The same molecule showed an IC50 in data set [4] of 0.79 µM.

As to `O=C(Nc1cccc(Nc2nccc(-c3cccnc3)n2)c1)c1cccs1`, the IC50 in data set [5] was 20 µM; in data set [1], 0.3 µM; in data set [6] it was above 50 µM; in data set [2] it was above 500 µM; in data set [7] it was 3 µM.

Consider `CCCCCC(=O)Nc1cccc(Nc2nccc(-c3cccnc3)n2)c1`, for which the concentration for half-maximal inhibition (IC50) in data set [5] is 0.6 µM; in data set [1] it was 0.2 µM; in data set [6], above 100 µM; in data set [7], 3.7 µM; in data set [3] it was 19 µM; in data set [4], 2 µM.

Consider `COC(=O)c1cccc(Nc2nccc(-c3cccnc3)n2)c1`, for which the IC50 was above 10 µM in data set [5], 5.1 µM in data set [1], above 500 µM in data set [2] and 90 µM in data set [7].

As to `CN1CCN(Cc2ccc(C(=O)Nc3cccc(Nc4nccc(-c5cccnc5)n4)c3)cc2)CC1`, the IC50 was 0.2 µM in data set [5]; 0.1 µM in data set [1]; above 100 µM in data set [6]; 475 µM in data set [2]; 7.8 µM in data set [7].

In the case of `Nc1cccc(Nc2nccc(-c3ccncc3)n2)c1`, the IC50 is above 10 µM in data set [5], 0.6 µM in data set [1] and 16 µM in data set [7].

For `Nc1cccc(Nc2nccc(-c3cccnc3)n2)c1`, the IC50 in data set [5] is above 100 µM; in data set [1] it was 0.7 µM; in data set [2], 6 µM; in data set [7], 14 µM; in data set [3], above 500 µM; in data set [4] it was 210 µM.

In the case of `O=C(O)c1cccc(Nc2nccc(-c3cccnc3)n2)c1`, the IC50 is above 10 µM in data set [5]; 8 µM in data set [1]; 126 µM in data set [7]; above 100 µM in data set [3]; 45 µM in data set [4].

As to `FC(F)C(F)(F)Oc1cccc(Nc2nccc(-c3ccc(Cl)cc3)n2)c1`, the IC50 in data set [5] is above 10 µM; in data set [1], above 50 µM; in data set [6], above 100 µM; in data set [2], above 500 µM; in data set [7], above 100 µM; in data set [3], above 100 µM. The same molecule returned an IC50 in data set [4] of 0.85 µM.

Take `c1ccc(Nc2nccc(-c3cccnc3)n2)cc1`: the IC50 is above 10 µM in data set [5]; 1.8 µM in data set [1]; 100 µM in data set [6]; above 500 µM in data set [2]; above 100 µM in data set [7]; 39 µM in data set [3]. Besides, the IC50 in data set [4] came to 10.5 µM.

As for `O=C(Nc1cccc(Nc2nccc(-c3cccnc3)n2)c1)C1CCCCC1`, the IC50 in data set [5] is 0.8 µM; in data set [1], 0.45 µM; in data set [6], above 100 µM; in data set [2] it was above 500 µM; in data set [7] it was 46 µM.

Take `c1cc(Nc2nccc(-c3cccnc3)n2)cc(OCCn2ccnc2)c1`: the IC50 in data set [5] was above 10 µM; in data set [1] it was 1 µM; in data set [6] it was 7.1 µM; in data set [2], 340 µM; in data set [7] it was 4.9 µM; in data set [3], 34 µM. Further, in data set [4], the IC50 was found to be 1.5 µM.

As to `N#Cc1ccc(C(=O)Nc2cccc(Nc3nccc(-c4cccnc4)n3)c2)cc1`, the IC50 was 1.5 µM in data set [5]; 1.3 µM in data set [1]; above 100 µM in data set [6]; above 500 µM in data set [2]; above 100 µM in data set [7]; above 500 µM in data set [3]. The molecule also came in with an IC50 in data set [4] of 0.35 µM.

Turning to `Cc1ccc(C(=O)Nc2cccc(Nc3nccc(-c4cccnc4)n3)c2)cc1`, the half-inhibitory concentration (IC50) in data set [5] is 0.8 µM; in data set [1] it was 1 µM; in data set [6], above 100 µM; in data set [2] it was above 500 µM; in data set [7] it was above 100 µM.

Regarding `NCCCNC(=O)c1cccc(Nc2nccc(-c3cccnc3)n2)c1`, the IC50 was above 10 µM in data set [5], 0.4 µM in data set [1] and 9.8 µM in data set [7].

With `O=[N+]([O-])c1cccc(Nc2nccc(-c3ccccn3)n2)c1`, the IC50 in data set [5] is above 100 µM; in data set [1], 1.2 µM; in data set [6], above 100 µM; in data set [2], above 500 µM; in data set [7], above 100 µM; in data set [3], above 500 µM. The molecule further returned an IC50 in data set [4] of 2.5 µM.
